Source: patent US10844077B2, “Thiazolyl-containing compounds for treating proliferative diseases” (Dana-Farber Cancer Institute, Inc., priority 2014, dated 2020)
Several values for one entry are separate records, joined by “and”; a condition that tells them apart may be missing. Equal values may be shown once.

Columns and labels:
NDR1 = NDR1 (Homo sapiens (Human), UniProt Q15208); assay: KINATIV assay; type: cell-based; details: 1 μM, 90 minutes, BCWM.1 cells
Outline: (§1)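 ATP-biotin probe labeling of whole-cell lysates, followed by ACTIVX identification/quantitation of bound kinases; compounds in duplicate.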

broad panel of kinases [1] = target: broad panel of kinases (Homo sapiens, UniProt O95835); type: binding; details: LATS1; 1 μM
broad panel of kinases [2] = target: broad panel of kinases (Homo sapiens, UniProt P11362); type: binding; details: FGFR1; 1 μM
broad panel of kinases (Homo sapiens, UniProt P11362), sequence (P11362 22-822 limits assumed): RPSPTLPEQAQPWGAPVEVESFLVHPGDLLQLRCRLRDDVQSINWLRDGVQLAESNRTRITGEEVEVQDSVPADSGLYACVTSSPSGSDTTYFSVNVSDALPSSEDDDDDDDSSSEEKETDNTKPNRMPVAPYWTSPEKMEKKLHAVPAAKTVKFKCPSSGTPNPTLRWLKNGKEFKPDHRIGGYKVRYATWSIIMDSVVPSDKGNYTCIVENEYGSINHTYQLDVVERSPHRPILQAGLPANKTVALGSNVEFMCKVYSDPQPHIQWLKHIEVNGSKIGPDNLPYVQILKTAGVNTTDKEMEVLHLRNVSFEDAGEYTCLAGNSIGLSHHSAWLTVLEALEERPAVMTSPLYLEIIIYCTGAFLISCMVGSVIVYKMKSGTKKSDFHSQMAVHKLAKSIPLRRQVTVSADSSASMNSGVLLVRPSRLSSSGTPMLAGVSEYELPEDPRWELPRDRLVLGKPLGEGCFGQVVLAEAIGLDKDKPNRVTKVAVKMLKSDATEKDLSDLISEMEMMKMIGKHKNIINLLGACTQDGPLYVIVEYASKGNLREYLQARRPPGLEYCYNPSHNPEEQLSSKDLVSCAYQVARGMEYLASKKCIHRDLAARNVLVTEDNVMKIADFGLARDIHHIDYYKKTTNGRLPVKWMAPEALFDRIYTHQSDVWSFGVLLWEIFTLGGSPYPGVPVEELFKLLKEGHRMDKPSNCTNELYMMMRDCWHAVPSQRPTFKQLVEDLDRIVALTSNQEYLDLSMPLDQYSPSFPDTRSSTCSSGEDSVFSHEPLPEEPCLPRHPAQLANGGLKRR

broad panel of kinases [3] = target: broad panel of kinases (Homo sapiens, UniProt Q15569); type: binding; details: TESK1; 1 μM
broad panel of kinases [4] = target: broad panel of kinases (Homo sapiens, UniProt Q86UE8); type: binding; details: TLK2; 1 μM
broad panel of kinases [5] = target: broad panel of kinases (Homo sapiens, UniProt Q9HAZ1); type: binding; details: CLK4; 1 μM
broad panel of kinases [6] = target: broad panel of kinases (Homo sapiens, UniProt Q9UQ88); type: binding; details: CDC2L2; 1 μM
kinases in BCWM.1 cells [7] = target: kinases in BCWM.1 cells (Homo sapiens, UniProt Q04759); type: cell-based; details: PKCt; ATP Loop; 1 μM, 90 min; GF
Experimental: (§2) The cells were harvested and lysed. […] Bound kinases were identified and quantitated by ACTIVX as described in Patricelli et al., Biochemistry, 2007, 46(2): 350-358. The compounds were tested in duplicates against duplicate or quadruplicate control samples.

CDK7 = CDK7 (Homo sapiens (Human), UniProt P50613); assay: KINATIV assay; type: cell-based; details: 1 μM, 90 minutes, BCWM.1 cells
CDK7, sequence (P50613 2-346): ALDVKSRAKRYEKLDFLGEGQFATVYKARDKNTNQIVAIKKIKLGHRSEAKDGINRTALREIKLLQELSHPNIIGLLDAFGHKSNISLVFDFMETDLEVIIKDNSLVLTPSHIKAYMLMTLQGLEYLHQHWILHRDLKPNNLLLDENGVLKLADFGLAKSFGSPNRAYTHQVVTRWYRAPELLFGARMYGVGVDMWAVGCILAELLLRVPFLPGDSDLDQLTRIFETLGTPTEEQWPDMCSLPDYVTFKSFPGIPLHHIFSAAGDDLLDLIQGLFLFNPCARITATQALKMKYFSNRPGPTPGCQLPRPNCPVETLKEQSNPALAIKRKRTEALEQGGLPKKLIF
CDK7, sequence (P51946 whole entry partner): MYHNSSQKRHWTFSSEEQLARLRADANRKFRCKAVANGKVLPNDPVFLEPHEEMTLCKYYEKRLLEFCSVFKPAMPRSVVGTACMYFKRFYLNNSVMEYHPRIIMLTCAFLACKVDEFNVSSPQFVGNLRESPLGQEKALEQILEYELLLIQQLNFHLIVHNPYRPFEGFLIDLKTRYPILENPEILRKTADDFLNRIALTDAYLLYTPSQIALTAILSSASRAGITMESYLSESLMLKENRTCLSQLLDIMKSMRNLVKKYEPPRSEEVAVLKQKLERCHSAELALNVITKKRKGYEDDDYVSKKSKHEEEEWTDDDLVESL
CDK7, sequence (P51948 whole entry partner): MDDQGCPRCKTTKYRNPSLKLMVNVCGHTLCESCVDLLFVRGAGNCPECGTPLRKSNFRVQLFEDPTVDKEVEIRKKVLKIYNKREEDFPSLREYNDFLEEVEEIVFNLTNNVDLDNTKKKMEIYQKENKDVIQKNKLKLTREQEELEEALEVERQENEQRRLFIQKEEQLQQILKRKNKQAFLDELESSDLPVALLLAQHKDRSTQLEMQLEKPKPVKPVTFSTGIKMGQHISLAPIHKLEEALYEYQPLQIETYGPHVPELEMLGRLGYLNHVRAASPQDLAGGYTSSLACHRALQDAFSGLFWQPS
Outline: as §1

DNAPK = DNAPK (Homo sapiens (Human), UniProt P78527); assay: KINATIV assay; type: cell-based; details: 1 μM, 90 minutes, BCWM.1 cells
Outline: as §1

IKKb = IKKb (Homo sapiens (Human), UniProt O14920); assay: KINATIV assay; type: cell-based; details: 1 μM, 90 minutes, BCWM.1 cells
IKKb, sequence (O14920 whole entry): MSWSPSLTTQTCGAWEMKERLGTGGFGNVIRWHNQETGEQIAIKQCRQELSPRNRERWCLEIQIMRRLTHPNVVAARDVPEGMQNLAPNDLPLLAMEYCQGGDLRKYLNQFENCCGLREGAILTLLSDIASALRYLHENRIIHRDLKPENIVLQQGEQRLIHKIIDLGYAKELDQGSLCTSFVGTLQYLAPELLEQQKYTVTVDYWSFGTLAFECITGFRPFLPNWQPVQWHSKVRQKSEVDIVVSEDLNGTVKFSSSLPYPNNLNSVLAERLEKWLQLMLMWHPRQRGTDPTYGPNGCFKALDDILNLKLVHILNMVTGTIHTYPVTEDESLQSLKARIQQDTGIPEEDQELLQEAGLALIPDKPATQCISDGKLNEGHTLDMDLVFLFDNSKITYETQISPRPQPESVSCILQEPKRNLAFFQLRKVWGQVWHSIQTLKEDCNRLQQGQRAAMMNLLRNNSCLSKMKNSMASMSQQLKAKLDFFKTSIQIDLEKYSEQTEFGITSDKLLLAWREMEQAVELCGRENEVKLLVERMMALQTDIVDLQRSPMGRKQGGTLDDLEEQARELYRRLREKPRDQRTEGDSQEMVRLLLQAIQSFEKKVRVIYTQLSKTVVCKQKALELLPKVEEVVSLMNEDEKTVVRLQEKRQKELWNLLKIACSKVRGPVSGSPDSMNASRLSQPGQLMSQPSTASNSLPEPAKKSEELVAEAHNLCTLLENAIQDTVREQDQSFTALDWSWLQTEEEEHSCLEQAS
Outline: as §1

JAK3 domain2 = JAK3 domain2 (Homo sapiens (Human), UniProt P52333); assay: KINATIV assay; type: cell-based; details: 1 μM, 90 minutes, BCWM.1 cells
Outline: as §1

MAP2K1, MAP2K2 = assay: KINATIV assay; type: cell-based; details: 1 μM, 90 minutes, BCWM.1 cells
Outline: as §1

p38a = p38a (Homo sapiens (Human), UniProt Q16539); assay: KINATIV assay; type: cell-based; details: 1 μM, 90 minutes, BCWM.1 cells
p38a, sequence (Q16539 whole entry): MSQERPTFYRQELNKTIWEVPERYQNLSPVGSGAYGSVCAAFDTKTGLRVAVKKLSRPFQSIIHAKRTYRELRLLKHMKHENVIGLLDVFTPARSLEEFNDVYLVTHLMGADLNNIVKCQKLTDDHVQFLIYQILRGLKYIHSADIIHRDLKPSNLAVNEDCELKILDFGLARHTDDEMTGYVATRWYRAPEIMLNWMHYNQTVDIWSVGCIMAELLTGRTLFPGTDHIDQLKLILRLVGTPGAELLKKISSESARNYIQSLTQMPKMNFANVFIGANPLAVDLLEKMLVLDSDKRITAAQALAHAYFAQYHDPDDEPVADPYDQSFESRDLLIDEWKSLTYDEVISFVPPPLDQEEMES
Outline: as §1

kinases in BCWM.1 cells [8] = target: kinases in BCWM.1 cells (Homo sapiens, UniProt O14733); type: cell-based; details: MAP2K7; Lys2; 1 μM; GF
kinases in BCWM.1 cells (Homo sapiens, UniProt O14733), sequence (O14733 2-419 limits assumed): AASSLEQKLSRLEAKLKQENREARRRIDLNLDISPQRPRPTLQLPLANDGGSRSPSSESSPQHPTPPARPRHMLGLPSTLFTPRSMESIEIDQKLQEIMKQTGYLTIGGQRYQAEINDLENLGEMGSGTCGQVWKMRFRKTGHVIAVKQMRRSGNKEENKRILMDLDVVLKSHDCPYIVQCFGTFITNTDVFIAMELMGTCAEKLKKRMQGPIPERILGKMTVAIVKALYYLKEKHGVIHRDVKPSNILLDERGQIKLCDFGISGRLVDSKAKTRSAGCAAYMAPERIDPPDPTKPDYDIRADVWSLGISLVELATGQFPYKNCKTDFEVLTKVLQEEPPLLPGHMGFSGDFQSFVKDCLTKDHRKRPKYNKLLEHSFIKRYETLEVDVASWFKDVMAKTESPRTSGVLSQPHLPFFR
Experimental: as §2

kinases in BCWM.1 cells [9] = target: kinases in BCWM.1 cells (Homo sapiens, UniProt O14920); type: cell-based; details: IKKb; Lys2; 1 μM; GF
Experimental: as §2

kinases in BCWM.1 cells [10] = target: kinases in BCWM.1 cells (Homo sapiens, UniProt O75582); type: cell-based; details: MSK1 domain1; Lys2; 1 μM; GF
Experimental: as §2

kinases in BCWM.1 cells [11] = target: kinases in BCWM.1 cells (Homo sapiens, UniProt P06241); type: cell-based; details: FYN; Lys1; 1 μM; GF
Experimental: as §2

kinases in BCWM.1 cells [12] = target: kinases in BCWM.1 cells (Homo sapiens, UniProt P07948); type: cell-based; details: LYN; Lys1; 1 μM; GF
kinases in BCWM.1 cells (Homo sapiens, UniProt P07948), sequence (P07948 2-512 limits assumed): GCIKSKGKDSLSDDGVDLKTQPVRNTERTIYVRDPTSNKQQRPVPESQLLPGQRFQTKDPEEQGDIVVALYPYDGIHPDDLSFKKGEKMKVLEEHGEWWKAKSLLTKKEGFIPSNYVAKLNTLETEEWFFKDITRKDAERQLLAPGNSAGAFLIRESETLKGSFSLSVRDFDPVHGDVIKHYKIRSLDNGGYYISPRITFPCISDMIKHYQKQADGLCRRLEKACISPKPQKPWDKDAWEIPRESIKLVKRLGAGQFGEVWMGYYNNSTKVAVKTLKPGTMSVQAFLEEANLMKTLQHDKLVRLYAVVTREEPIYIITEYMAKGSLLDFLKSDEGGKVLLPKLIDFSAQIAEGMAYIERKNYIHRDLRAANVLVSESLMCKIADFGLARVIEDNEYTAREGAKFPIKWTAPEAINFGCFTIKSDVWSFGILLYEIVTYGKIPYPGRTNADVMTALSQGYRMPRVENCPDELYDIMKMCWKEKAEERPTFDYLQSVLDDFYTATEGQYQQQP
Experimental: as §2

kinases in BCWM.1 cells [13] = target: kinases in BCWM.1 cells (Homo sapiens, UniProt P28482); type: cell-based; details: Erk2; Lys2; 1 μM; GF
Experimental: as §2

kinases in BCWM.1 cells [14] = target: kinases in BCWM.1 cells (Homo sapiens, UniProt Q00534); type: cell-based; details: CDK6; Lys2; 1 μM; GF
Experimental: as §2

kinases in BCWM.1 cells [15] = target: kinases in BCWM.1 cells (Homo sapiens, UniProt Q06187); type: cell-based; details: BTK; Activation Loop; 1 μM; GF
kinases in BCWM.1 cells (Homo sapiens, UniProt Q06187), sequence (Q06187 2-659 limits assumed): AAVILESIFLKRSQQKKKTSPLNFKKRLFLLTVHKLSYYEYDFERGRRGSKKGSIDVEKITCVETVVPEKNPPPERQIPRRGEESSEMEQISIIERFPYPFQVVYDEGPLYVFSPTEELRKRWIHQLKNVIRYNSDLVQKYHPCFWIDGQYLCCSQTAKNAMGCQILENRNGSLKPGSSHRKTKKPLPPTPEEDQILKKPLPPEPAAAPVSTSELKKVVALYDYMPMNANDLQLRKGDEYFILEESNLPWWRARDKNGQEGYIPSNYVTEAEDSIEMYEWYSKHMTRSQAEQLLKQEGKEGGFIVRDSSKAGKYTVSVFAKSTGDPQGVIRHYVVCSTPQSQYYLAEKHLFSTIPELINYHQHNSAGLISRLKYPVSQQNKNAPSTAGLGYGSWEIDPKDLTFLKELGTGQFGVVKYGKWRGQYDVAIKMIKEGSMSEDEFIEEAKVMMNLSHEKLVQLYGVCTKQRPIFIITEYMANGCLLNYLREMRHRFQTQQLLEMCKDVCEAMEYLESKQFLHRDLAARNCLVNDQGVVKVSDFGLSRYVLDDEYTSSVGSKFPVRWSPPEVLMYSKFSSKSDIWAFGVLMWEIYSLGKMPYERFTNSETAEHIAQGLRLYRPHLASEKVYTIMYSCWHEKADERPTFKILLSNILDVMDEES
Experimental: as §2

kinases in BCWM.1 cells [16] = target: kinases in BCWM.1 cells (Homo sapiens, UniProt Q14164); type: cell-based; details: IKKe; Lys1; 1 μM; GF
Experimental: as §2

kinases in BCWM.1 cells [17] = target: kinases in BCWM.1 cells (Homo sapiens, UniProt Q14680); type: cell-based; details: MELK; Lys2; 1 μM; GF
Experimental: as §2

kinases in BCWM.1 cells [18] = target: kinases in BCWM.1 cells (Homo sapiens, UniProt Q8NB16); type: cell-based; details: MLKL; Lys1; 1 μM; GF
Experimental: as §2

kinases in BCWM.1 cells [19] = target: kinases in BCWM.1 cells (Homo sapiens, UniProt Q96GD4); type: cell-based; details: AurB; Lys1; 1 μM; GF
Experimental: as §2

kinases in BCWM.1 cells [20] = target: kinases in BCWM.1 cells (Homo sapiens, UniProt Q9NWZ3); type: cell-based; details: IRAK4; Lys2; 1 μM; GF
Experimental: as §2

kinases in BCWM.1 cells [21] = target: kinases in BCWM.1 cells (Homo sapiens, UniProt Q9P2K8); type: cell-based; details: GCN2; Lys2; 1 μM; GF
Experimental: as §2

kinases in BCWM.1 cells [22] = target: kinases in BCWM.1 cells (Homo sapiens, UniProt Q9Y4K4); type: cell-based; details: KHS1; Lys1; 1 μM; GF
Experimental: as §2

kinases in BCWM.1 cells [23] = target: kinases in BCWM.1 cells (Homo sapiens, UniProt Q9Y6E0); type: cell-based; details: MST3; Lys2; 1 μM; GF
Experimental: as §2

BTK = BTK (Homo sapiens (Human), UniProt Q06187); assay: BTK inhibitory activity; type: biochemical
SLK = SLK (Homo sapiens (Human), UniProt Q9H2G2); assay: KINATIV assay; type: cell-based; details: 1 μM, 90 minutes, BCWM.1 cells
Outline: as §1

NDR1, sequence (Q15208 whole entry): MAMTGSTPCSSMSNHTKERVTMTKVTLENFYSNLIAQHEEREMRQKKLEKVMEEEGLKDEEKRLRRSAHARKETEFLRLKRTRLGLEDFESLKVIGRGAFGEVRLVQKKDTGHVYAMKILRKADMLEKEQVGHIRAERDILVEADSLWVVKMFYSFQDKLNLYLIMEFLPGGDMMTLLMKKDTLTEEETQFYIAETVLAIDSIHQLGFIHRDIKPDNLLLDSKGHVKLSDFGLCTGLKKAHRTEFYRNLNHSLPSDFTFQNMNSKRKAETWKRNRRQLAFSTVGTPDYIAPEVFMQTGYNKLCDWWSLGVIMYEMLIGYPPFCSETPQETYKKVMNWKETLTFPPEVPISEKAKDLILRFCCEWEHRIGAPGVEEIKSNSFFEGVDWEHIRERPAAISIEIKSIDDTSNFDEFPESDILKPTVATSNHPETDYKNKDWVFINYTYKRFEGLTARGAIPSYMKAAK

SMILES: C=CC(=O)N1CCC(CNc2nccc(Nc3ncc(C(=O)Nc4c(C)cccc4C)s3)n2)C1 (racemic) [Example I-8]
- % change of MS signal compared to control sample (NDR1): −0.8% and 2.2%

SMILES: C=CC(=O)N1CC[C@H](Nc2nc(CN3CCOCC3)cc(Nc3ncc(C(=O)Nc4c(C)cccc4C)s3)n2)C1 [Example I-2]
- percent of control binding remaining (lower = stronger binding) (broad panel of kinases [1]): 100%
- percent of control binding remaining (lower = stronger binding) (broad panel of kinases [2]): 91%
- percent of control binding remaining (lower = stronger binding) (broad panel of kinases [3]): 60%
- percent of control binding remaining (lower = stronger binding) (broad panel of kinases [4]): 97%
- percent of control binding remaining (lower = stronger binding) (broad panel of kinases [5]): 94%
- percent of control binding remaining (lower = stronger binding) (broad panel of kinases [6]): 92%

SMILES: C=CC(=O)N1CC[C@H](Nc2nccc(Nc3ncc(C(=O)Nc4c(C)cccc4C)s3)n2)C1 [Example I-3]
- % change of MS signal compared to control sample (kinases in BCWM.1 cells [7]): 23.5%
- percent of control binding remaining (lower = stronger binding) (broad panel of kinases [1]): 93%
- percent of control binding remaining (lower = stronger binding) (broad panel of kinases [2]): 93%
- percent of control binding remaining (lower = stronger binding) (broad panel of kinases [3]): 88%
- percent of control binding remaining (lower = stronger binding) (broad panel of kinases [4]): 94%
- percent of control binding remaining (lower = stronger binding) (broad panel of kinases [5]): 85%
- percent of control binding remaining (lower = stronger binding) (broad panel of kinases [6]): 93%

SMILES: C=CC(=O)N1CC[C@@H](Nc2nccc(Nc3ncc(C(=O)Nc4c(C)cccc4C)s3)n2)C1 [Example I-4]
- % change of MS signal compared to control sample (CDK7): 21.6% and 16.8%
- % change of MS signal compared to control sample (DNAPK): −80.8%
- % change of MS signal compared to control sample (IKKb): 3.1% and 4.4%
- % change of MS signal compared to control sample (JAK3 domain2): −30.8%

SMILES: C=CC(=O)N1CCCCC(Nc2nccc(Nc3ncc(C(=O)Nc4c(C)cccc4C)s3)n2)C1 (centres unmarked) [Example I-7]
- % change of MS signal compared to control sample (MAP2K1, MAP2K2): 7.4%
- % change of MS signal compared to control sample (p38a): 69.8% and 51.2%

SMILES: CCC(=O)N1CC[C@H](Nc2nccc(Nc3ncc(C(=O)Nc4c(C)cccc4C)s3)n2)C1 [Example I-9]
- % change of MS signal compared to control sample (kinases in BCWM.1 cells [8]): −2.8% and −0.3%
- % change of MS signal compared to control sample (kinases in BCWM.1 cells [9]): 0.4% and −1.4%
- % change of MS signal compared to control sample (kinases in BCWM.1 cells [10]): −22.8% and −23.9%
- % change of MS signal compared to control sample (kinases in BCWM.1 cells [11]): >91%
- % change of MS signal compared to control sample (kinases in BCWM.1 cells [12]): 85.2% and 94%
- % change of MS signal compared to control sample (kinases in BCWM.1 cells [13]): −3.8% and 4%
- % change of MS signal compared to control sample (kinases in BCWM.1 cells [14]): 2.7% and 3.5%
- % change of MS signal compared to control sample (kinases in BCWM.1 cells [15]): 96.7% and 70.7%
- % change of MS signal compared to control sample (kinases in BCWM.1 cells [16]): −12.6% and −6.1%
- % change of MS signal compared to control sample (kinases in BCWM.1 cells [17]): −9.6% and −9.5%
- % change of MS signal compared to control sample (kinases in BCWM.1 cells [18]): −4.7% and −3.9%
- % change of MS signal compared to control sample (kinases in BCWM.1 cells [19]): −20.6% and −21.5%
- % change of MS signal compared to control sample (kinases in BCWM.1 cells [20]): −3.2% and 6.2%
- % change of MS signal compared to control sample (kinases in BCWM.1 cells [21]): −18.8% and −10.7%
- % change of MS signal compared to control sample (kinases in BCWM.1 cells [22]): −7.5% and −8.7%
- % change of MS signal compared to control sample (kinases in BCWM.1 cells [23]): −1.9% and −1.4%

SMILES: C=CC(=O)N1CCC(Cn2ccc(Nc3ncc(C(=O)Nc4c(C)cccc4Cl)s3)n2)C1 (centres unmarked) [II-1]
- IC50 (BTK): 1.1 nM
- % change of MS signal compared to control sample (SLK): 0.0% and −3.6%
